Data reported in BigSolDB 2.1.

O=c1cc(-c2ccccc2)oc2cc(O)cc(O)c12
solubility (mole fraction) (in DMF, 293.2 K): 0.01 | solubility (mole fraction) (in DMF, 298.2 K): 0.0131 | solubility (mole fraction) (in DMF, 303.2 K): 0.0152 | solubility (mole fraction) (in DMF, 308.2 K): 0.0229 | solubility (mole fraction) (in DMF, 313.2 K): 0.0264 | solubility (mole fraction) (in DMF, 318.2 K): 0.0328 | solubility (mole fraction) (in DMF, 323.2 K): 0.0408 | solubility (mole fraction) (in DMF, 328.2 K): 0.0479 | solubility (mole fraction) (in DMF, 333.2 K): 0.0568 | solubility (mole fraction) (in acetone, 293.2 K): 0.00128 | solubility (mole fraction) (in acetone, 298.2 K): 0.00143 | solubility (mole fraction) (in acetone, 303.2 K): 0.00161 | solubility (mole fraction) (in acetone, 308.2 K): 0.00176 | solubility (mole fraction) (in acetone, 313.2 K): 0.00205 | solubility (mole fraction) (in acetone, 318.2 K): 0.00226 | solubility (mole fraction) (in acetone, 323.2 K): 0.00243 | solubility (mole fraction) (in acetone, 328.2 K): 0.00281 | solubility (mole fraction) (in ethanol, 293.2 K): 0.000455 | solubility (mole fraction) (in ethanol, 298.2 K): 0.000505 | solubility (mole fraction) (in ethanol, 303.2 K): 0.000637 | solubility (mole fraction) (in ethanol, 308.2 K): 0.000709 | solubility (mole fraction) (in ethanol, 313.2 K): 0.000822 | solubility (mole fraction) (in ethanol, 318.2 K): 0.000903 | solubility (mole fraction) (in ethanol, 323.2 K): 0.00113 | solubility (mole fraction) (in ethanol, 328.2 K): 0.00144 | solubility (mole fraction) (in ethanol, 333.2 K): 0.00171 | solubility (mole fraction) (in ethyl acetate, 293.2 K): 0.000716 | solubility (mole fraction) (in ethyl acetate, 298.2 K): 0.00082 | solubility (mole fraction) (in ethyl acetate, 303.2 K): 0.000893 | solubility (mole fraction) (in ethyl acetate, 308.2 K): 0.00101 | solubility (mole fraction) (in ethyl acetate, 313.2 K): 0.00113 | solubility (mole fraction) (in ethyl acetate, 318.2 K): 0.00134 | solubility (mole fraction) (in ethyl acetate, 323.2 K): 0.00144 | solubility (mole fraction) (in ethyl acetate, 328.2 K): 0.00163 | solubility (mole fraction) (in ethyl acetate, 333.2 K): 0.00176 | solubility (mole fraction) (in isopropanol, 293.2 K): 0.000512 | solubility (mole fraction) (in isopropanol, 298.2 K): 0.000614 | solubility (mole fraction) (in isopropanol, 303.2 K): 0.000707 | solubility (mole fraction) (in isopropanol, 308.2 K): 0.000836 | solubility (mole fraction) (in isopropanol, 313.2 K): 0.00104 | solubility (mole fraction) (in isopropanol, 318.2 K): 0.00121 | solubility (mole fraction) (in isopropanol, 323.2 K): 0.0014 | solubility (mole fraction) (in isopropanol, 328.2 K): 0.00185 | solubility (mole fraction) (in isopropanol, 333.2 K): 0.00213 | solubility (mole fraction) (in methanol, 293.2 K): 0.000226 | solubility (mole fraction) (in methanol, 298.2 K): 0.000238 | solubility (mole fraction) (in methanol, 303.2 K): 0.000299 | solubility (mole fraction) (in methanol, 308.2 K): 0.000324 | solubility (mole fraction) (in methanol, 313.2 K): 0.000406 | solubility (mole fraction) (in methanol, 318.2 K): 0.000453 | solubility (mole fraction) (in methanol, 323.2 K): 0.000576 | solubility (mole fraction) (in methanol, 328.2 K): 0.000711 | solubility (mole fraction) (in methanol, 333.2 K): 0.000813 | solubility (mole fraction) (in n-butanol, 293.2 K): 0.000586 | solubility (mole fraction) (in n-butanol, 298.2 K): 0.000663 | solubility (mole fraction) (in n-butanol, 303.2 K): 0.000833 | solubility (mole fraction) (in n-butanol, 308.2 K): 0.000981 | solubility (mole fraction) (in n-butanol, 313.2 K): 0.00115 | solubility (mole fraction) (in n-butanol, 318.2 K): 0.00138 | solubility (mole fraction) (in n-butanol, 323.2 K): 0.0016 | solubility (mole fraction) (in n-butanol, 328.2 K): 0.00195 | solubility (mole fraction) (in n-butanol, 333.2 K): 0.00229 | solubility (mole fraction) (in n-hexane, 293.2 K): 1.4e-07 | solubility (mole fraction) (in n-hexane, 298.2 K): 2.95e-07 | solubility (mole fraction) (in n-hexane, 303.2 K): 3.8e-07 | solubility (mole fraction) (in n-hexane, 308.2 K): 4.5e-07 | solubility (mole fraction) (in n-hexane, 313.2 K): 6.78e-07 | solubility (mole fraction) (in n-hexane, 318.2 K): 1.08e-06 | solubility (mole fraction) (in n-hexane, 323.2 K): 1.25e-06 | solubility (mole fraction) (in n-hexane, 328.2 K): 1.7e-06 | solubility (mole fraction) (in n-hexane, 333.2 K): 2.21e-06 | solubility (mole fraction) (in n-propanol, 293.2 K): 0.000482 | solubility (mole fraction) (in n-propanol, 298.2 K): 0.000569 | solubility (mole fraction) (in n-propanol, 303.2 K): 0.000724 | solubility (mole fraction) (in n-propanol, 308.2 K): 0.000837 | solubility (mole fraction) (in n-propanol, 313.2 K): 0.000971 | solubility (mole fraction) (in n-propanol, 318.2 K): 0.00123 | solubility (mole fraction) (in n-propanol, 323.2 K): 0.00147 | solubility (mole fraction) (in n-propanol, 328.2 K): 0.0017 | solubility (mole fraction) (in n-propanol, 333.2 K): 0.00195 | solubility (mole fraction) (in water, 293.2 K): 4.61e-09 | solubility (mole fraction) (in water, 298.2 K): 8.63e-09 | solubility (mole fraction) (in water, 303.2 K): 1.26e-08 | solubility (mole fraction) (in water, 308.2 K): 2.57e-08 | solubility (mole fraction) (in water, 313.2 K): 3.96e-08 | solubility (mole fraction) (in water, 318.2 K): 4.82e-08 | solubility (mole fraction) (in water, 323.2 K): 8.41e-08 | solubility (mole fraction) (in water, 328.2 K): 1.28e-07 | solubility (mole fraction) (in water, 333.2 K): 1.88e-07
